Measurements reported in patent US5215916A, “Super glucocorticoid receptors: receptors with increased affinity and specificity for glucocorticoid steriods” (priority 1991, dated 1993).

Biological target: T1, Wild type glucocorticoid receptor (Rattus norvegicus, UniProt P06536)
T1 construct: Thus the full length receptor was removed from the VARO vector with BamHI and inserted into the SVL vector; expressed in transfected cells; host or cells: COS-7 (cytosol)
T1 sequence (P06536 1-795): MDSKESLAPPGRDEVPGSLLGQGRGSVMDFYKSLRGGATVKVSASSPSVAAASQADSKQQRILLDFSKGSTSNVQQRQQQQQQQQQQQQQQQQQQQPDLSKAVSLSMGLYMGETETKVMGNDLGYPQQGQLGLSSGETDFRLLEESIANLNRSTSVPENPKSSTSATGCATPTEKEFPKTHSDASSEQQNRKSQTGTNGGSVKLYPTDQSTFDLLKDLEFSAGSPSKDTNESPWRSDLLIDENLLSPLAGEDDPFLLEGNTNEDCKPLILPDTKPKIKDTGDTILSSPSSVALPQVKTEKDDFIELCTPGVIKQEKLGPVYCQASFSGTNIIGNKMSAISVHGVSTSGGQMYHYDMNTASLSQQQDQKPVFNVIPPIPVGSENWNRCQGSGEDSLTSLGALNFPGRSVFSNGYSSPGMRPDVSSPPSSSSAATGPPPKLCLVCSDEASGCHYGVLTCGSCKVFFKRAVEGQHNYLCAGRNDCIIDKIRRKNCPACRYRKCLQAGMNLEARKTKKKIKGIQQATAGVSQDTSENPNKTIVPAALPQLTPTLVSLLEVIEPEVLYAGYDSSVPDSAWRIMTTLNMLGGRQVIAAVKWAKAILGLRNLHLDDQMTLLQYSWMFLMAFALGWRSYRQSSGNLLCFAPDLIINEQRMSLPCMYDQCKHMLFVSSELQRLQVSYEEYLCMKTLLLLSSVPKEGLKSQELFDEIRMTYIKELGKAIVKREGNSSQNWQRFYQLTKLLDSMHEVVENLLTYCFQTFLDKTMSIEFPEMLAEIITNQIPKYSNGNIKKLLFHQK
Test: Competition binding assay with [3H]Dex, COS-7 cytosol, wild type receptor
Protocol: Monolayer cultures of COS-7 cells were grown in DMEM (Gibco) supplemented with 5% fetal bovine serum (FBS) (Biofluids) at 37° C. in a 5% CO2 incubator. Standard calcium phosphate transfection methods were used to introduce the wild type and mutant receptor expression vectors (pSVL) into COS-7 cells (100 mm plates [Costar] at a cell density of about 10^6 /plate were each treated with 10 μg of plasmid DNA). After ~16 hrs of incubation at 37° C. in a 5% CO2 incubator, the excess calcium phosphate and precipitate were removed by washing with phosphate buffered saline (PBS). […]
COS-7 cell cytosol containing the steroid-free receptors was prepared by cell lysis at -80° C. and centrifugation at 15,000 ×g and labeled as described for HTC cells (S. S. Simons and P. A. Miller, Biochem 23:6876-6882 (1984)). […] The specifically bound [^3 H]Dex was determined by first adding a 10% dextran-coated charcoal solution (added volume =20% of reaction solution volume) to remove free steroid and then subtracting the nonspecific binding seen in the presence of excess nonradioactive Dex. […]
The specificity of steroid binding was determined by Rodbard correction (Rodbard, 1973) of the data from a competition binding assay (S. S. Simons et al., Biochem. Biophys. Res. Comm. 86:793-800 (1979); Miller and Simons, 1988). […]

Row | Compound | Relative Ka of Steroid Binding to Receptor
1 | C[C@]12CC[C@@H]3c4ccc(O)cc4CC[C@H]3[C@@H]1CC[C@@H]2O [17β-Estradiol, 17β-estradiol] | 0.029 ± 0.006
2 | CC#C[C@]1(O)CC[C@H]2[C@@H]3CCC4=CC(=O)CCC4=C3[C@@H](c3ccc(N(C)C)cc3)C[C@@]21C [RU486] | 3.4 ± 1.2
